Measurements published in ChEMBL document CHEMBL3271996, “Potential antitumor agents. Synthesis of bifunctional alpha-methylene-gamma-butyrolactones” (J Med Chem, 1976).
Values after ≈ are worked out from the molar mass of the structure shown. Active and inactive are the calls of the source. The rule behind the calls is not given here.

Columns and labels:
[1] = system: 9KB; assay: (§1) Cytotoxicity against human 9KB cells; format: functional
[2] = system: L1210; assay: Antitumor activity against mouse L1210 cells allografted in mouse at 100 to 400 mg/kg; format: functional, organism-based
[3] = system: Rattus norvegicus; assay: Toxicity in rat Walker 256 cells allografted rat at 240 mg/kg; format: organism-based; set-up: dose 240 mg/kg; conditions: in vivo
[4] = system: HeLa; assay: Cytotoxicity against human HeLa cells at 5 ug/ml; format: functional, cell-based
[5] = system: W256; assay: Antitumor activity against rat Walker 256 cells allografted in rat assessed as inhibition of tumor growth at 120 mg/kg; format: functional; conditions: read-out: TGI
[6] = species on record: Rattus norvegicus; assay: Toxicity in rat Walker 256 cells allografted rat; format: organism-based
[7] = system: W256; assay: Antitumor activity against rat Walker 256 cells allografted in rat; format: functional
[8] = as §1; format: functional; conditions: read-out: ED50 (the source's name)
[9] = system: L1210; assay: Antitumor activity against mouse L1210 cells allografted in mouse; format: functional
[10] = system: W256; assay: Antitumor activity against rat Walker 256 cells allografted in rat assessed as inhibition of tumor growth at 18.75 mg/kg; format: functional; conditions: read-out: TGI
[11] = system: Rattus norvegicus; assay: Toxicity in rat Walker 256 cells allografted rat at 37.5 mg/kg; format: organism-based; set-up: dose 37.5 mg/kg; conditions: in vivo

## O=C(Cc1ccccc1)O/C=C1\CCOC1=O
[1]
  Activity: inactive
[2]
  Activity: inactive

## CC1(O/C=C2\CCOC2=O)C=CC(=O)O1 (stereo not given)
[3]
  Activity: Toxic
[4]
  Activity: Active
[5]
  inhibition in vivo at 120 mg/kg: 27%

## O=C1OCC/C1=C\OCCCCCCO/C=C1\CCOC1=O
[1]
  Activity: inactive
[6]
  Activity: Non-toxic
[2]
  Activity: inactive
[7]
  Activity: inactive

## O=C1OCC/C1=C\OCCCCO/C=C1\CCOC1=O
[1]
  Activity: inactive
[2]
  Activity: inactive

## C=C1CC(CCCCC2CC(=C)C(=O)O2)OC1=O (stereo not given)
[8]
  EC50: 32 µg/mL (≈ 128 µM)
[9]
  Activity: inactive

## C=C1CCOC1=O [TULIPALINE A]
[8]
  EC50: 16 µg/mL (≈ 163 µM)

## C=C1CC(CCCCCC2CC(=C)C(=O)O2)OC1=O (stereo not given)
[8]
  EC50: 15 µg/mL (≈ 56.7 µM)
[9]
  Activity: inactive

## O=C1OCC/C1=C\OCCCCCCCCCCO/C=C1\CCOC1=O
[2]
  Activity: inactive

## O=C1OCC/C1=C\OC(=O)c1ccccc1
[2]
  Activity: inactive

## O=C1OCC/C1=C\OCCCO/C=C1\CCOC1=O
[2]
  Activity: inactive

## Cc1ccc(S(=O)(=O)O/C=C2\CCOC2=O)cc1
[1]
  Activity: inactive
[2]
  Activity: inactive

## O=C1OCC/C1=C\OCCCCCO/C=C1\CCOC1=O
[2]
  Activity: inactive

## O=C1OCC/C1=C\OCCO/C=C1\CCOC1=O
[1]
  Activity: inactive
[2]
  Activity: inactive

## C=C1CC(CCCCCCC2CC(=C)C(=O)O2)OC1=O (stereo not given)
[8]
  EC50: 7 µg/mL (≈ 25.1 µM)
[9]
  Activity: inactive

## C=C1CC(CCCC2CC(=C)C(=O)O2)OC1=O (stereo not given)
[10]
  inhibition in vivo at 18.75 mg/kg: 45%
[11]
  Activity: Toxic
[8]
  EC50: 4 µg/mL (≈ 16.9 µM)
[9]
  Activity: inactive
